Results taken from the supplement of paper PMC10331698.
± gives the standard deviation of the averaged measurements.

Legend:
[1] = compound: OCC(F)(F)C(F)(F)C(F)(F)C(F)(F)C(F)(F)C(F)(F)F [6:1 Fluorotelomer alcohol]; assay: level (log10 ratio to DMSO vehicle control); higher = higher biomarker level / cell amount than vehicle control; conditions: in DMSO
Procedure: (§1)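 BioMAP Diversity Plus panel of 12 human primary cell co-culture systems (3C, 4H, LPS, SAg, BT, BF4T, BE3C, CASM3C, HDF3CGF, KF3CT, MyoF, Mphg). Compounds were added 1 h before stimulation and left for 24 h (MyoF 48 h; BT 72 h for soluble read-outs or 6 d for IgG). Biomarkers were read by ELISA, cytotoxicity by SRB, PBMC viability and proliferation by Alamar Blue. Each well value was divided by the mean of 8 DMSO control wells on the same plate and log10 transformed; duplicate blinded samples were tested at 4 concentrations.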

[2] = compound: O=C(O)C(F)(F)C(F)(F)C(F)(F)C(F)(F)C(F)(F)C(F)(F)C(F)(F)F [Ammonium perfluorooctanoate]; assay: as above; conditions: in DMSO
Procedure: as §1

Test System | level (log10) ([1]; 6700 nM) | level (log10) ([1]; 20000 nM) | level (log10) ([1]; 60000 nM) | level (log10) ([2]; 6700 nM) | level (log10) ([2]; 20000 nM) | level (log10) ([2]; 60000 nM)
MyoF:CD106/VCAM-1 | -0.003 ± 0.0071 | -0.009 ± 0.017 | -0.002 ± 0.018 | -0.011 ± 0.016 | -0.017 ± 0.0085 | -0.017 ± 0.0057
CASM3C:CD142/Tissue Factor | 0.009 ± 0.017 | 0.0035 ± 0.0092 | -0.0315 ± 0.015 | 0.005 ± 0.028 | -0.009 ± 0.025 | -0.01 ± 0.024
HDF3CGF:MMP-1 | 0.002 ± 0.0099 | 0.008 ± 0.0071 | -0.0355 ± 0.07 | 0.027 ± 0.0085 | -0.002 ± 0.0099 | -0.027 ± 0.062
MyoF:Collagen I | 0 ± 0.021 | -0.0005 ± 0.012 | 0.0015 ± 0.03 | -0.006 ± 0.0014 | 0.0025 ± 0.013 | -0.0125 ± 0.015
lMphg:CD106/VCAM-1 | 0.0035 ± 0.021 | 0.0035 ± 0.032 | 0.0115 ± 0.04 | 0.0135 ± 0.0035 | 0.023 ± 0.0014 | -0.0105 ± 0.0021
lMphg:CCL2/MCP-1 | -0.016 ± 0.0028 | -0.046 ± 0.023 | -0.02 ± 0.0071 | 0.0045 ± 0.016 | 0.005 ± 0.016 | 0.0065 ± 0.0021
3C:CD54/ICAM-1 | 0.004 | -0.001 ± 0.0071 | -0.0815 ± 0.12 | 0.004 ± 0.014 | 0.0065 ± 0.0064 | 0.0065 ± 0.00071
CASM3C:HLA-DR | 0.0095 ± 0.0064 | 0.0135 ± 0.0021 | -0.0195 ± 0.035 | 0.0085 ± 0.012 | -0.0055 ± 0.0021 | 0.0015 ± 0.023
HDF3CGF:CXCL11/I-TAC | -0.009 ± 0.016 | -0.014 ± 0.0071 | -0.22 ± 0.35 | 0.014 ± 0.0014 | 0.037 ± 0.02 | 0.0555 ± 0.033
3C:CCL2/MCP-1 | -0.005 ± 0.011 | -0.005 ± 0.0014 | -0.007 ± 0.033 | -0.002 ± 0.0099 | 0.004 ± 0.025 | 0.0315 ± 0.035
lMphg:M-CSF | -0.023 ± 0.028 | -0.0415 ± 0.035 | -0.0285 ± 0.029 | -0.018 ± 0.0099 | -0.018 ± 0.037 | 0.0055 ± 0.0021
KF3CT:IL-1alpha | -0.005 ± 0.02 | 0.0195 ± 0.021 | 0.007 ± 0.0071 | -0.0065 ± 0.00071 | -0.026 ± 0.0071 | -0.079 ± 0.025
BE3C:SRB | -0.0015 ± 0.005 | -0.0055 ± 0.0021 | 0.002 ± 0.011 | -0.0045 ± 0.005 | -0.003 | -0.0145 ± 0.0078
3C:CD106/VCAM-1 | 0.006 ± 0.0071 | 0.013 ± 0.013 | 0.011 ± 0.021 | 0.004 ± 0.03 | -0.0025 ± 0.03 | 0.019 ± 0.041
HDF3CGF:Collagen I | -0.01 ± 0.0085 | -0.0005 ± 0.005 | 0.0145 ± 0.039 | 0.0285 ± 0.019 | 0.01 ± 0.021 | -0.0645 ± 0.088
KF3CT:PAI-I | -0.0005 ± 0.011 | -0.001 ± 0.011 | 0.008 ± 0.0099 | -0.0015 ± 0.0021 | -0.018 ± 0.0099 | -0.01 ± 0.0099
3C:CD142/Tissue Factor | -0.007 ± 0.0014 | 0.004 ± 0.014 | 0.0005 ± 0.026 | -0.0145 ± 0.0035 | -0.0045 ± 0.0021 | -0.036 ± 0.017
HDF3CGF:EGFR | 0.009 ± 0.041 | 0.0125 ± 0.019 | -0.0555 ± 0.035 | -0.095 ± 0.14 | -0.005 ± 0.05 | -0.105 ± 0.087
MyoF:alpha-SM Actin | 0 ± 0.0057 | -0.006 ± 0.0099 | 0.011 ± 0.054 | -0.0145 ± 0.0078 | -0.016 ± 0.0071 | -0.0295 ± 0.04
CASM3C:CD141/Thrombomodulin | 0.0105 ± 0.044 | 0.023 ± 0.0028 | 0.023 ± 0.0099 | 0.014 ± 0.035 | 0.0205 ± 0.036 | 0.0465 ± 0.032

Test System | level (log10) ([1]; 6700 nM) | level (log10) ([1]; 20000 nM) | level (log10) ([1]; 60000 nM) | level (log10) ([2]; 6700 nM) | level (log10) ([2]; 20000 nM) | level (log10) ([2]; 60000 nM)
lMphg:CCL3/MIP-1alpha | 0.009 ± 0.017 | -0.0095 ± 0.036 | 0.0235 ± 0.083 | 0.003 ± 0.018 | 0.013 ± 0.024 | 0.0395 ± 0.029
BE3C:PAI-I | -0.0235 ± 0.0092 | -0.007 ± 0.0014 | 0.026 ± 0.011 | 0.014 ± 0.023 | 0.0045 ± 0.005 | 0.0255 ± 0.016
MyoF:bFGF | -0.001 ± 0.0014 | 0.0005 ± 0.013 | 0.006 ± 0.011 | 0 ± 0.013 | -0.007 ± 0.014 | 0.0015 ± 0.015
HDF3CGF:TIMP-1 | -0.009 ± 0.0085 | -0.022 | -0.014 ± 0.027 | 0.013 ± 0.0028 | 0.0065 ± 0.016 | 0.008 ± 0.02
CASM3C:Serum Amyloid A | -0.001 ± 0.013 | 0.01 ± 0.017 | -0.052 ± 0.018 | 0.0345 ± 0.022 | 0.015 ± 0.0057 | 0.0345 ± 0.012
lMphg:CXCL8/IL-8 | 0.0335 ± 0.016 | 0.0395 ± 0.035 | 0.0375 ± 0.0092 | 0.0185 ± 0.026 | 0.099 ± 0.0057 | 0.222 ± 0.033
lMphg:CD62E/E-Selectin | 0.009 ± 0.024 | -0.008 ± 0.011 | -0.002 ± 0.023 | -0.0205 ± 0.0021 | -0.003 ± 0.058 | 0.0025 ± 0.022
MyoF:MMP-1 | -0.018 ± 0.014 | -0.0295 ± 0.0078 | 0.15 ± 0.26 | -0.029 ± 0.016 | -0.0145 ± 0.019 | 0.0415 ± 0.013
CASM3C:PAI-I | -0.0035 ± 0.005 | -0.0015 ± 0.00071 | 0.003 ± 0.0085 | 0.0005 ± 0.00071 | -0.001 ± 0.0028 | 0.0085 ± 0.0078
MyoF:PAI-I | 0.0015 ± 0.0078 | -0.006 ± 0.0042 | 0.0025 ± 0.019 | 0.0095 ± 0.015 | 0.0035 ± 0.013 | 0.027 ± 0.011
CASM3C:CD106/VCAM-1 | -0.0075 ± 0.026 | -0.001 ± 0.024 | -0.074 ± 0.034 | 0.0115 ± 0.015 | -0.0085 ± 0.013 | -0.021 ± 0.025
BE3C:tPA | 0.0055 ± 0.012 | -0.0145 ± 0.019 | -0.0075 ± 0.0021 | -0.029 ± 0.045 | -0.015 ± 0.02 | -0.07 ± 0.0085
CASM3C:LDLR | 0.0045 ± 0.016 | 0.014 ± 0.017 | -0.0585 ± 0.022 | -0.0015 ± 0.018 | 0 ± 0.031 | 0.0085 ± 0.039
HDF3CGF:TIMP-2 | 0.004 ± 0.0099 | -0.0195 ± 0.0064 | -0.0905 ± 0.17 | 0.0225 ± 0.015 | 0.0535 ± 0.039 | 0.047 ± 0.05
HDF3CGF:CXCL9/MIG | -0.001 ± 0.0042 | -0.012 ± 0.011 | -0.0175 ± 0.0078 | -0.0195 ± 0.0092 | -0.0085 ± 0.025 | -0.0915 ± 0.047
BE3C:MMP-9 | -0.0045 ± 0.037 | -0.0065 ± 0.019 | 0.0155 ± 0.021 | -0.0145 ± 0.0064 | 0.047 ± 0.0042 | 0.0375 ± 0.021
HDF3CGF:Collagen III | -0.0865 ± 0.14 | 0.0115 ± 0.074 | -0.367 ± 0.052 | 0.0555 ± 0.032 | -0.1 ± 0.048 | -0.142 ± 0.0021
BE3C:Keratin 8/18 | 0.0055 ± 0.036 | -0.0035 ± 0.057 | -0.0125 ± 0.071 | -0.0195 ± 0.012 | -0.0215 ± 0.012 | -0.0225 ± 0.0035
MyoF:Collagen III | -0.005 | -0.0015 ± 0.005 | 0.0105 ± 0.005 | 0.0015 ± 0.00071 | -0.0095 ± 0.0064 | -0.0225 ± 0.0021
KF3CT:CXCL9/MIG | -0.0025 ± 0.019 | -0.003 ± 0.016 | 0.0025 ± 0.0021 | 0.005 ± 0.0014 | 0.0095 ± 0.0035 | 0.0115 ± 0.016
